Experimental data as given in ChEMBL document CHEMBL5252628, “Novel xanthone antibacterials: Semi-synthesis, biological evaluation, and the action mechanisms” (Bioorg Med Chem, 2023).
≈ marks a conversion by molar mass, not a printed value. Calls of active or inactive are those of the source. No cut-off for these calls is given here. Where a SMILES comes first, the peptide text is derived from it. [ ]: non-standard residue; d: D form. Orn = NCCC[C@H](N)C(=O)O

Assays:
Staphylococcus aureus [1] = assay: Antibacterial activity against methicillin-resistant Staphylococcus aureus 2 assessed as inhibition of bacterial growth incubated for 18 to 24 hrs by broth microdilution assay; type: functional; details: time 18-24 hrs
Staphylococcus aureus [2] = assay: Antibacterial activity against Staphylococcus aureus ATCC 43300 assessed as inhibition of bacterial growth incubated for 18 to 24 hrs by broth microdilution assay; type: functional; details: time 18-24 hrs
Escherichia coli = assay: Antibacterial activity against Escherichia coli ATCC 25922 assessed as inhibition of bacterial growth incubated for 18 to 24 hrs by broth microdilution assay; type: functional; details: time 18-24 hrs
Salmonella enteritidis = assay: Antibacterial activity against Salmonella enteritidis SM012 assessed as inhibition of bacterial growth incubated for 18 to 24 hrs by broth microdilution assay; type: functional, Salmonella enterica subsp. enterica serovar Enteritidis; details: Salmonella enterica, time 18-24 hrs
Staphylococcus aureus [3] = assay: Antibacterial activity against Staphylococcus aureus SH-27 assessed as inhibition of bacterial growth incubated for 18 to 24 hrs by broth microdilution assay; type: functional; details: time 18-24 hrs
Staphylococcus aureus [4] = assay: Antibacterial activity against Staphylococcus aureus ATCC 29213 assessed as inhibition of bacterial growth incubated for 18 to 24 hrs by broth microdilution assay; type: functional; details: time 18-24 hrs
Staphylococcus aureus [5] = assay: Antibacterial activity against Staphylococcus aureus ATCC 33591 assessed as inhibition of bacterial growth incubated for 18 to 24 hrs by broth microdilution assay; type: functional; details: time 18-24 hrs
[6] = Cytotoxicity against human L02 cells assessed as reduction in cell viability incubated for 72 hrs by CCK-8 assay; type: toxicity, cell-based
[7] = Hemolytic activity in rabbit RBC assessed as hemolysis incubated for 1 hr by microtiter plate method; type: toxicity, cell-based, Oryctolagus cuniculus, Erythrocyte; details: red blood cells
Staphylococcus aureus [8] = assay: Bactericidal activity against Staphylococcus aureus ATCC 29213 assessed as reduction in colony forming unit at 1 to 8 times MIC incubated for 18 to 24 hrs by time kill assay; type: functional, organism-based; details: time 18-24 hrs
Staphylococcus aureus [9] = assay: Induction of drug resistance in Staphylococcus aureus ATCC 29213 assessed as fold increase in MIC measured after 20 passage; type: functional
Staphylococcus aureus [10] = assay: Bactericidal activity against methicillin-resistant Staphylococcus aureus 2 assessed as reduction in colony forming unit at 1 to 8 times MIC incubated for 18 to 24 hrs by time kill assay; type: functional, organism-based; details: time 18-24 hrs
Staphylococcus aureus [11] = assay: Bactericidal activity against Staphylococcus aureus ATCC 29213 assessed as reduction in colony forming unit at 4 times MIC measured after 4 hrs by time kill assay; type: functional
Staphylococcus aureus [12] = assay: Bactericidal activity against methicillin-resistant Staphylococcus aureus 2 assessed as reduction in colony forming unit at 4 times MIC measured after 4 hrs by time kill assay; type: functional
Staphylococcus aureus [13] = assay: Inhibition of biofilm formation in Staphylococcus aureus ATCC 29213 at 4 to 16 microg/ml incubated for 18 to 24 hrs by crystal violet staining based assay; type: functional, organism-based; details: dose 4-16 µg/ml, time 18-24 hrs
Staphylococcus aureus [14] = assay: Inhibition of biofilm formation in methicillin-resistant Staphylococcus aureus 2 at 4 to 16 microg/ml incubated for 18 to 24 hrs by crystal violet staining based assay; type: functional, organism-based; details: dose 4-16 µg/ml, time 18-24 hrs
Staphylococcus aureus [15] = assay: Inhibition of biofilm formation in Staphylococcus aureus ATCC 29213 at 1 times MIC incubated for 18 to 24 hrs by crystal violet staining based assay; type: functional; details: time 18-24 hrs
Staphylococcus aureus [16] = assay: Inhibition of biofilm formation in methicillin-resistant Staphylococcus aureus 2 at 1 times MIC incubated for 18 to 24 hrs by crystal violet staining based assay; type: functional; details: time 18-24 hrs
Staphylococcus aureus [17] = assay: Antibacterial activity Staphylococcus aureus ATCC 29213 infected BALB/c mouse assessed as decrease in volume of skin abscess at 50 to 100 mg/kg,iv measured on day 1 and 3 after infection; type: functional, organism-based; details: dose 50-100 mg/kg
Staphylococcus aureus [18] = assay: Antibacterial activity Staphylococcus aureus ATCC 29213 infected BALB/c mouse assessed as reduction in bacterial burden at 50 to 100 mg/kg,iv measured on day 1 and 3 after infection; type: functional, organism-based; details: dose 50-100 mg/kg
Staphylococcus aureus [19] = assay: Antibacterial activity Staphylococcus aureus ATCC 29213 infected BALB/c mouse assessed as decrease in degree of lesion at 50 to 100 mg/kg,iv measured on day 1 and 3 after infection by hematoxylin and eosin staining based assay; type: functional, organism-based; details: dose 50-100 mg/kg
Staphylococcus aureus [20] = assay: Antibacterial activity Staphylococcus aureus ATCC 29213 infected BALB/c mouse assessed as increase in skin thickness at 50 to 100 mg/kg,iv measured on day 1 and 3 after infection by hematoxylin and eosin staining based assay; type: functional, organism-based; details: dose 50-100 mg/kg
Staphylococcus aureus [21] = assay: Antibacterial activity Staphylococcus aureus ATCC 29213 infected BALB/c mouse assessed as IL-1beta cytokine level at 50 to 100 mg/kg,iv measured on day 1 and 3 after infection; type: functional, organism-based; details: dose 50-100 mg/kg
Staphylococcus aureus [22] = assay: Antibacterial activity Staphylococcus aureus ATCC 29213 infected BALB/c mouse assessed as TNF-alpha cytokine level at 50 to 100 mg/kg,iv measured on day 1 and 3 after infection; type: functional, organism-based; details: dose 50-100 mg/kg
Staphylococcus aureus [23] = assay: Antibacterial activity against Staphylococcus aureus ATCC 29213 assessed as cell wall loosening at 5 x MIC incubated for 2 hrs by transmission electron microscopy analysis; type: functional, organism-based
Staphylococcus aureus [24] = assay: Antibacterial activity against Staphylococcus aureus ATCC 29213 assessed as blurred space in cytoplasm and cell wall at 5 x MIC incubated for 2 hrs by transmission electron microscopy analysis; type: functional, organism-based
Staphylococcus aureus [25] = assay: Antibacterial activity against Staphylococcus aureus ATCC 29213 assessed as separation of plasma wall at 5 x MIC incubated for 2 hrs by transmission electron microscopy analysis; type: functional, organism-based
Staphylococcus aureus [26] = assay: Antibacterial activity against Staphylococcus aureus ATCC 29213 assessed as appearance of circular vesicles at 5 x MIC incubated for 2 hrs by transmission electron microscopy analysis; type: functional, organism-based
Staphylococcus aureus [27] = assay: Antibacterial activity against methicillin-resistant Staphylococcus aureus 2 assessed as cell wall loosening at 5 x MIC incubated for 2 hrs by transmission electron microscopy analysis; type: functional, organism-based
Staphylococcus aureus [28] = assay: Antibacterial activity against methicillin-resistant Staphylococcus aureus 2 assessed as blurred space in cytoplasm and cell wall at 5 x MIC incubated for 2 hrs by transmission electron microscopy analysis; type: functional, organism-based
Staphylococcus aureus [29] = assay: Antibacterial activity against methicillin-resistant Staphylococcus aureus 2 assessed as separation of plasma wall at 5 x MIC incubated for 2 hrs by transmission electron microscopy analysis; type: functional, organism-based
Staphylococcus aureus [30] = assay: Antibacterial activity against methicillin-resistant Staphylococcus aureus 2 assessed as appearance of circular vesicles at 5 x MIC incubated for 2 hrs by transmission electron microscopy analysis; type: functional, organism-based
Cell membrane [31] = assay: Disruption of membrane integrity in Staphylococcus aureus ATCC 29213 assessed as cell membrane damage at 5 x MIC incubated for 2 hrs by propidium iodide staining based assay; type: subcellular
Cell membrane [32] = assay: Disruption of membrane integrity in Staphylococcus aureus ATCC 29213 assessed as cell membrane damage at 5 x MIC incubated for 2 hrs by DAPI staining based assay
Cell membrane [33] = assay: Induction of cell membrane permeability in Staphylococcus aureus ATCC 29213 at 5 x MIC incubated for 2 hrs by TO-PRO-3 reagent flow cytometry assay; type: subcellular
Cell membrane [34] = assay: Induction of cell membrane permeability in methicillin-resistant Staphylococcus aureus 2 at 5 x MIC incubated for 2 hrs by TO-PRO-3 reagent flow cytometry assay; type: subcellular
A549 = assay: Cytotoxicity against human A549 cells assessed as reduction in cell viability at 25 ug/ml incubated for 72 hrs by CCK-8 assay; type: toxicity, cell-based; details: a549, 72 h, dose 25 µg/ml
Cell membrane [35] = assay: Induction of membrane depolarization in Staphylococcus aureus ATCC 29213 at 5 x MIC incubated for 2 hrs by DiOC23 dye based based flow cytometry; type: subcellular
Cell membrane [36] = assay: Induction of membrane depolarization in methicillin-resistant Staphylococcus aureus 2 at 5 x MIC incubated for 2 hrs by DiOC23 dye based based flow cytometry; type: subcellular
Cell membrane [37] = assay: Induction of cell membrane disruption in Staphylococcus aureus ATCC 29213 assessed as increase in protein leakage at 5 x MIC incubated for 2 hrs by coomassie brilliant blue dye assay; type: subcellular
Cell membrane [38] = assay: Induction of cell membrane disruption in methicillin-resistant Staphylococcus aureus 2 assessed as increase in protein leakage at 5 x MIC incubated for 2 hrs by coomassie brilliant blue dye assay; type: subcellular
Cell membrane [39] = assay: Induction of cell membrane disruption in Staphylococcus aureus ATCC 29213 assessed as increase in intracellular vanomycin content at 10 x MIC incubated for 2 hrs by UPLC analysis
Staphylococcus aureus [40] = assay: Antibacterial activity against Staphylococcus aureus ATCC 29213 assessed as appearance of cell round pellet at 5 x MIC incubated for 2 hrs by transmission electron microscopy analysis; type: functional, organism-based
Staphylococcus aureus [41] = assay: Antibacterial activity against methicillin-resistant Staphylococcus aureus 2 assessed as appearance of cell round pellet at 5 x MIC incubated for 2 hrs by transmission electron microscopy analysis; type: functional, organism-based
[42] = Cytotoxicity against human A549 cells assessed as reduction in cell viability incubated for 72 hrs by CCK-8 assay; type: toxicity, cell-based

Structure (SMILES): COc1c(O)cc2oc3cc(O)c(CC=C(C)C)c(OC(C)=O)c3c(=O)c2c1CC=C(C)C
- MIC (Staphylococcus aureus [1]): 4 µg/mL (≈ 8.84 µM)
- MIC (Staphylococcus aureus [2]): 1 µg/mL (≈ 2.21 µM)
- MIC (Escherichia coli): > 256 µg/mL
- MIC (Salmonella enteritidis): > 256 µg/mL
- MIC (Staphylococcus aureus [3]): 2 µg/mL (≈ 4.42 µM)
- MIC (Staphylococcus aureus [4]): 4 µg/mL (≈ 8.84 µM)
- MIC (Staphylococcus aureus [5]): 1 µg/mL (≈ 2.21 µM)
- IC50 at 72 h [6]: 22.1 µg/mL (≈ 48.8 µM)
- HC50 at 1 h [7]: 6.3 µg/mL
- Activity (Staphylococcus aureus [8]): Active
- Activity (Staphylococcus aureus [9]): inactive
- Activity (Staphylococcus aureus [10]): Active
- Activity (Staphylococcus aureus [11]): 4.57 log10CFU
- Activity (Staphylococcus aureus [12]): 3.72 log10CFU
- inhibition (Staphylococcus aureus [13]): Dose-Dependent Effect
- inhibition (Staphylococcus aureus [14]): Dose-Dependent Effect
- inhibition (INH) (Staphylococcus aureus [15]): 90%
- inhibition (INH) (Staphylococcus aureus [16]): 98%
- Activity (Staphylococcus aureus [17]): Dose-Dependent Effect
- Activity (Staphylococcus aureus [18]): Active
- Activity (Staphylococcus aureus [19]): Active
- Activity (Staphylococcus aureus [20]): Active
- Activity (Staphylococcus aureus [21]): Active
- Activity (Staphylococcus aureus [22]): Active
- Activity (Staphylococcus aureus [23]): Active
- Activity (Staphylococcus aureus [24]): Active
- Activity (Staphylococcus aureus [25]): Active
- Activity (Staphylococcus aureus [26]): Active
- Activity (Staphylococcus aureus [27]): Active
- Activity (Staphylococcus aureus [28]): Active
- Activity (Staphylococcus aureus [29]): Active
- Activity (Staphylococcus aureus [30]): Active
- Activity (Cell membrane [31]): Active
- Activity (Cell membrane [32]): Active
- Activity (Cell membrane [33]): 100%
- Activity (Cell membrane [34]): 100%
- Activity (A549): Non-Toxic
- Activity (Cell membrane [35]): Active
- Activity (Cell membrane [36]): Active
- Activity (Cell membrane [37]): Active
- Activity (Cell membrane [38]): Active
- Activity (Cell membrane [39]): Active

Structure (SMILES): CC(C)C[C@@H]1NC(=O)[C@H](CCCN)NC(=O)[C@H](C(C)C)NC(=O)[C@@H]2CCCN2C(=O)[C@@H](Cc2ccccc2)NC(=O)[C@H](CC(C)C)NC(=O)[C@H](CCCN)NC(=O)[C@H](C(C)C)NC(=O)[C@@H]2CCCN2C(=O)[C@@H](Cc2ccccc2)NC1=O (cyclo(V[Orn]L[dF]PV[Orn]L[dF]P))
- Activity (Staphylococcus aureus [23]): Active
- Activity (Staphylococcus aureus [24]): Active
- Activity (Staphylococcus aureus [25]): Active
- Activity (Staphylococcus aureus [40]): Active
- Activity (Staphylococcus aureus [27]): Active
- Activity (Staphylococcus aureus [28]): Active
- Activity (Staphylococcus aureus [29]): Active
- Activity (Staphylococcus aureus [41]): Active
- Activity (Cell membrane [37]): Active
- Activity (Cell membrane [38]): Active

Structure (SMILES): COc1c(OC(C)=O)cc2oc3cc(O)c(CC=C(C)C)c(O)c3c(=O)c2c1CC=C(C)C
- MIC (Staphylococcus aureus [1]): 2 µg/mL (≈ 4.42 µM)
- MIC (Staphylococcus aureus [2]): 2 µg/mL (≈ 4.42 µM)
- MIC (Escherichia coli): > 256 µg/mL
- IC50 at 72 h [42]: 17.5 µg/mL (≈ 38.7 µM)
- MIC (Salmonella enteritidis): > 256 µg/mL
- MIC (Staphylococcus aureus [3]): 2 µg/mL (≈ 4.42 µM)
- MIC (Staphylococcus aureus [4]): 4 µg/mL (≈ 8.84 µM)
- MIC (Staphylococcus aureus [5]): 2 µg/mL (≈ 4.42 µM)
- IC50 at 72 h [6]: 13.2 µg/mL (≈ 29.2 µM)
- HC50 at 1 h [7]: > 500 µg/mL
